Results published in publication PMC3263710, “Synthesis and Inhibiting Activity of Some 4-Hydroxycoumarin Derivatives on HIV-1 Protease” (ISRN Pharmaceutics, 2011).
Non-standard residues stand in square brackets, D forms with d. Residues, ends and D or L forms follow the SMILES beside them. *: point of attachment. Sta = CC(C)C[C@H](N)[C@@H](O)CC(=O)O; Isovaleryl = CC(C)CC(=O)*

Key:
HIV-1 protease = system: HIV-1 protease; set-up: method as in PMID 8185622; conditions: binding activity of the experimental ligands on HIV-1 protease; cited from earlier work
MT-4 cells = experiment: Cytotoxicity by MTT uptake assay (maximal nontoxic concentration); format: cell-based; conditions: for maximal nontoxic concentration (MNC): MTT uptake assay; for maximal nontoxic concentration (MNC) / maximal nontoxic concentration (MNC), concentration tested: Table 3; for maximal nontoxic concentration (MNC), concentration tested: reference inhibitors
Description: The compounds under study were first dissolved in DMSO and further diluted in cell growth medium without fetal serum. All the solutions were prepared ex tempore.
CC50 and MNC were detected by MTT uptake assay. IC50 was studied on MT-4 cells by microtiter infection assay exploring the protection of cells from the cytopathic effect of HIV measured by MTT test. Experiments under conditions of acute infection were performed in 96-well microplates with 6–8 parallels/experiment. Cell controls (MT-4 cells with medium only) and viral controls (virus infected MT-4 cells) were run with each experiment. For antivirus assays, HIV was added to each well to obtain multiplicity of infection 0.1 except the cell controls. Virus attachment was allowed for an hour at 37°C/5% CO2. The plates were incubated for 72–96 hours at 37°C/5% CO2. After that, MTT test was performed as described and absorbance of viable cells was measured colorimetrically at A540 nm. […] For antiviral assays, the mean values of experimental and control rows were compared and the percentage of cells protected (cell survival) under the appropriate concentration of the substance was plotted against the concentration of the substance to obtain IC50. The cell survival (% of cell protection) was calculated according to the following formula: […]

HIV-1 III B = experiment: Microtiter infection assay, protection of MT-4 cells from HIV cytopathic effect (MTT); format: cell-based; conditions: for Infection assay MTT- % cell survival / inhibition of virus infectivity / viral replication in MT-4 cells: HIV-1-infected MT-4 cells; for Infection assay MTT- % cell survival: compound at MNC, 72–96 hours
Description: The evaluation of anti-HIV effect was done by an in vitro rapid and sensitive microtiter infection assay based on cytolysis quantitation by vital dye (MTT) uptake as an endpoint for infection. Additionally, the effect of inhibitors on endogenous reverse transcriptase (RT) activity of HIV-1 III B-infected MT-4 supernatants was considered as a marker for the ability of blocking HIV-1 replication. MT-4 cells were infected and incubated with each inhibitor for 72–96 hours, and then RT activity was measured in the cell supernatants according to guidelines in the HS-Lenti Kit-RT assay (Cavidi, Sweden). A study of direct effect of the newly synthesized 4-hydroxycoumarins on exogenous recombinant RT (rRT) was also performed. Further, all the compounds were tested for anti-HIV-1 PR activity. Table 3 represents the results of microtiter infection assay using MTT and inhibition of HIV-1 PR activity. The experiments were carried out in maximal nontoxic concentration (MNC) for each compound.
MT-4—a human lymphoblastoid suspension cell line, kindly provided by Gianfranco Pancino— Institute Pasteur, (Unite de Regulation des Infections Retrovirales, Paris, France) represent a classical model for experimental productive infection with HIV-1 III B strain and used as a routine target for study of effect of putative HIV inhibitors in cell culture.
As a source of HIV-1, supernatants of H9/HTLV III B line—a gift from Dr. R. Gallo (NIH, USA)— were used. Supernatants were collected and centrifuged to remove the cells, and virus stocks were prepared with known p24 antigen content (460 pg/mL, Murex HIV Antigen mAB test), RT activity (565.3 pg RT/mL, HS-Lenti RT Activity Kit, Cavidi, Sweden), and infectivity (2 × 10^6 infectious virions/mL, microtiter infection assay). MT-4 and H9/HTLV III B cells were grown in RPMI 1640 supplemented with 10% FCS (invitrogen).
The following parameters were studied: cytotoxic concentration 50—CC50, where possible (the concentration preventing death of 50% of […] cells), maximal nontoxic concentration—MNC, and inhibitory concentration 50-IC50 (concentration inhibiting by 50% the viral replication). CC50 and MNC were detected by MTT uptake assay. IC50 was studied on MT-4 cells by microtiter infection assay exploring the protection of cells from the cytopathic effect of HIV measured by MTT test. Experiments under conditions of acute infection were performed in 96-well microplates with 6–8 parallels/experiment. Cell controls (MT-4 cells with medium only) and viral controls (virus infected MT-4 cells) were run with each experiment. For antivirus assays, HIV was added to each well to obtain multiplicity of infection 0.1 except the cell controls. Virus attachment was allowed for an hour at 37°C/5% CO2. The plates were incubated for 72–96 hours at 37°C/5% CO2. After that, MTT test was performed as described and absorbance of viable cells was measured colorimetrically at A540 nm. […] For antiviral assays, the mean values of experimental and control rows were compared and the percentage of cells protected (cell survival) under the appropriate concentration of the substance was plotted against the concentration of the substance to obtain IC50. The cell survival (% of cell protection) was calculated according to the following formula:
(1) % cell protection =A540X−A540 Control HIV/ A540 Cell Control−A540 Control HIV ×100, where X is the mean value of A540 of HIV-infected cells treated with appropriate concentration of the compound under study; control HIV is the mean value of A540 of HIV-infected cells without any compound added; cell control is the mean value of A540 of uninfected and untreated with inhibitor cells.

native HIV-1 protease = molecular target: T1, native HIV-1 protease (Human immunodeficiency virus type 1 group M subtype B, UniProt P04585); experiment: Antiprotease activity using native viral PR, spectrophotometric substrate utilization; format: biochemical; conditions: compound at MNC
T1 construct: The lysis of viral particles and releasing of the active enzyme (protease) was performed using disrupting (lysis) buffer; endogenous in cells; host or cells: Virions from supernatants of chronically infected H9/HTLV IIIB cells, concentrated 50x and lysed with Triton X-100
Description: A method described earlier by Broglia et al., 2006 [19], for detection of recombinant protease activity was modified to use native viral protease. As a source of native HIV-1 protease, again suspension of concentrated viral stock (50x) from chronically infected H9/HTLV IIIB cell supernatants was used. The lysis of viral particles and releasing of the active enzyme (protease) was performed using disrupting (lysis) buffer containing 2.5% Triton X-100 in phosphate buffer. The concentration of the tissue culture fluid containing the virus was done by ultracentrifugation in Biofuge Stratos, Heraeus, for 1 hour, at 4°C and 35000 rev/min. The pellet was resuspended to obtain 50x concentrate in disrupting buffer.
The following reaction mixture was prepared for each experiment : 1000 μL phosphate buffer (20 mM, pH 6.0); 20 μL HIV protease substrate III ([…], 760 μM; Bachem, Switzerland) in DMSO, prepared ex tempore; 20 μL enzyme (stock HIV) taken from a solution containing 25 μL disrupting (lysis) buffer + 100 μL HIV-stock, incubated 40 min at 37°C prior to experiment.
The HIV-1 PR activity was measured using direct spectrophotometric reading of the enzyme reaction substrate utilization at 300 nm, at room temperature and 1 cm pathlength, using T80 + UV-Vis spectrophotometer (PG instruments). The initial reaction velocity (V0) was adjusted to be 0.0020–0.0030 ΔAbs/min by varying the enzyme activity (viral concentration). The tested compound and the reference inhibitor (pepstatin used here) was added to the reaction mixture prior to enzyme, in order to perform the screening for inhibitory effect. IC50 was defined as the concentration of the compound tested that decreases the velocity of the reaction by 50% of the initial velocity without tested (reference) compound.

Row | Compound | IC50 (HIV-1 protease) | maximal nontoxic concentration (MNC) (MT-4 cells) | Infection assay MTT- % cell survival (HIV-1 III B) | % Inhibition of HIV-1 protease activity (native HIV-1 protease) | other results
1 | 3-(3,4-dimethoxybenzyl)-4-hydroxy-2H-chromen-2-one [Ligand (2)] | 84 µM |  |  |  | 
2 | 3-(3,4-dimethoxybenzyl)-4-hydroxy-8-methyl-2H-chromen-2-one [Ligand (3)] | 23 µM |  |  |  | 
3 | 4-hydroxy-3-(1-phenoxypropyl)-2H-chromen-2-one [Ligand (1)] | 2.7 µM |  |  |  | 
4 | CCOC(=O)C(C(C)=O)C(c1ccc([N+](=O)[O-])cc1)c1c(O)c2ccccc2oc1=O (stereo not shown) [(8), Ethyl 2-[(4-Hydroxy-2-Oxo-2H-Chromen-3-yl)(4-Nitrophenyl)Methyl]-3-Oxobutanoate] |  | (8) (0.001) μM | 0% | 0% | 
5 | CC(C)CC(=O)N[C@H](C(=O)N[C@H](C(=O)N[C@@H](CC(C)C)[C@@H](O)CC(=O)N[C@@H](C)C(=O)N[C@@H](CC(C)C)[C@@H](O)CC(=O)O)C(C)C)C(C)C [Pepstatin, pepstatin, reference compound] (Isovaleryl-VV[Sta]A[Sta]-OH) |  |  |  | 100% | maximal nontoxic concentration (MNC), concentration tested (MT-4 cells): Pepstatin® (4.5 × 10^−5 M)
6 | CCOC(=O)C(C(C)=O)C(c1ccc(C(=O)O)cc1)c1c(O)c2ccccc2oc1=O (stereo not shown) [(11), 4-[1-(4-Hydroxy-2-Oxo-2H-Chromen-3-yl)-2-(Ethoxycarbonyl)-3-Oxobutyl]Benzoic Acid] |  | (11) (0.0001) μM | 0% | 0% | 
7 | CCOC(=O)C(C(C)=O)C(c1cccc([N+](=O)[O-])c1)c1c(O)c2ccccc2oc1=O (stereo not shown) [Compound (7), Ethyl 2-[(4-Hydroxy-2-Oxo-2H-Chromen-3-yl)(3-Nitrophenyl)Methyl]-3-Oxobutanoate] |  | (7) (0.001) μM | 78% | 25% | maximal nontoxic concentration (MT-4 cells; as stated in abstract): 1 mM; inhibition of virus infectivity / viral replication in MT-4 cells (HIV-1 III B): 76–78%; IC50 (HIV-1 III B; Human immunodeficiency virus 1, MT4, read-out: IC50 (concentration inhibiting by 50% the viral replication)): 0.01 nM
8 | CC(=O)C(C(C)=O)C(c1ccc(O)cc1)c1c(O)c2ccccc2oc1=O (stereo not shown) [(12), 3-[(4-Hydroxy-2-Oxo-2H-Chromen-3-yl)(4-Hydroxyphenyl)Methyl]Pentane-2,4-Dione] |  | (12) (0.001) μM | 0% | 0% | 
9 | 4-hydroxy-3-(3-oxo-1-phenylbutyl)-2H-chromen-2-one [Ligand (5)] | 18 µM |  |  |  | 
10 | CCOC(=O)C(C(C)=O)C(c1ccc(O)c(O)c1)c1c(O)c2ccccc2oc1=O (stereo not shown) [(10), Ethyl 2-[(3,4-Dihydroxyphenyl)(4-Hydroxy-2-Oxo-2H-Chromen-3-yl)Methyl]-3-Oxobuta-Noate] |  | (10) (0.0001) μM | 30% | 16% | inhibition of virus infectivity / viral replication in MT-4 cells (HIV-1 III B): inhibited viral replication
11 | 3-benzyl-4-hydroxy-8-phenyl-2H-chromen-2-one [Ligand (4)] | 8.1 µM |  |  |  | 
12 | CCOC(=O)C(C(C)=O)C(c1ccc(O)cc1)c1c(O)c2ccccc2oc1=O (stereo not shown) [(9), Ethyl 2-[(4-Hydroxy-2-Oxo-2H-Chromen-3-yl)(4-Hydroxyphenyl)Methyl]-3-Oxobutanoate] |  | (9) (0.0001) μM | 0% | 0% | 
13 | Nc1nc(NC2CC2)c2ncn([C@H]3C=C[C@@H](CO)C3)c2n1 [Abacavir, reference compound] |  |  | 98% |  | maximal nontoxic concentration (MNC), concentration tested (MT-4 cells): Abacavir® (35 × 10^−6 M)
